Laboratory results published in patent US20050271637A1, “BMP-2 estrogen responsive element and methods of using the same” (priority 2002, published 2005).
Entries after “also recorded” stand apart in the source; their conditions may differ. Blank lines part the entries; values can stand above or below the compound they belong to.

Key:
mouse BMP-2 mRNA [1] = experiment: Semi-quantitative RT-PCR of BMP-2 mRNA in MSCs from OVX mice; type: cell-based; conditions: for BMP-2 mRNA expression, effect of the substance alone: E2 100 nM, ICI 10 μM, tamoxifen 1.0 μM, raloxifene 100 nM
Method: (§1) Two months old Swiss-Webster female mice (ICR) were OVX in accordance with mandated standards of humane care, and the animals were maintained in accordance with the NIH Guide for the Care and Use of Laboratory Animals. After 5 months post-surgery, bone marrow was isolated from femurs and tibias, and the MSCs were cultured as described previously (Gazit et al. 1999 and Zhou et al. 2001). The bone marrow cells were maintained in DMEM (Phenol red free, 1.0 g/L glucose, Biological Industries, Israel) with 15% FBS (Charcoal stripped, heat-inactivated), 100 units/ml penicillin, 100 μg/ml streptomycin, and 2 mM glutamine. At day 4, the cultures were supplemented with 50 μg/ml ascorbic acid, 10 mM β-glycerophosphate, and 10 nM dexamethasone. From day 10, the cells were cultured in DMEM with 2% charcoal stripped (CS)-FBS without osteogenic supplements. […] RNA then was isolated at day 12. […] Mouse C3H10T1/2 cells were cultivated in DMEM (Sigma and Biological Industries) with 10% FBS, 100 units/ml penicillin, 100 μg/ml streptomycin, and 2 mM glutamine.
RNA was isolated using TRizol Reagent (Life Technologies, USA), according to the manufacturer's protocol. Semi-quantitative RT-PCR was performed as described previously (Zhou et al. 2001). Mouse BMP-2 (505 bp) (Zhou et al. 2001), internal control RPL19 (190 bp) (Orly et al. 1994) and c-myc (550 bp) (Goswami et al. 1997) primers were described previously. The PCR conditions used for mouse BMP-2 RT-PCR were 30 cycles of 94 C for 1 min, 55 C for 1 min and 72 for 2 min in an MJ MiniCycler (MJ Research, USA). RT-PCR products of mouse BMP-2 were cloned into the pGEM-T Easy vector (A1360, Promega), and the pGEM-T-mouse BMP-2 vectors were sequenced by a T7 sequence sequencing kit (US70770, USB, Cleveland, USA) according to the manufacturer's protocols. DNA sequence analysis confirmed that mouse BMP-2 had been amplified.
All experiments were performed three to five times independently. Data re presented as the mean values±the standard error of the mean. The semi-quantitative RT-PCR and real-time RT-PCR were performed 3 times in independent experiments using total RNA that was isolated from MSCs derived from 3-6 animals each time. Quantitative data were analyzed using either the non-parameteric Mann-Whitney test or the ANOVA test.

human ERβ = human ERβ (Homo sapiens, UniProt Q92731); experiment: Mouse BMP-2 promoter-luciferase assay in C3H10T1/2 cells co-transfected with human ERβ; conditions: 24 hr; E2 different doses or 10 nM, raloxifene 100 nM, tamoxifen 1.0 μM, genistein 100 nM
Chain of human ERβ (Q92731 46-530 limits assumed): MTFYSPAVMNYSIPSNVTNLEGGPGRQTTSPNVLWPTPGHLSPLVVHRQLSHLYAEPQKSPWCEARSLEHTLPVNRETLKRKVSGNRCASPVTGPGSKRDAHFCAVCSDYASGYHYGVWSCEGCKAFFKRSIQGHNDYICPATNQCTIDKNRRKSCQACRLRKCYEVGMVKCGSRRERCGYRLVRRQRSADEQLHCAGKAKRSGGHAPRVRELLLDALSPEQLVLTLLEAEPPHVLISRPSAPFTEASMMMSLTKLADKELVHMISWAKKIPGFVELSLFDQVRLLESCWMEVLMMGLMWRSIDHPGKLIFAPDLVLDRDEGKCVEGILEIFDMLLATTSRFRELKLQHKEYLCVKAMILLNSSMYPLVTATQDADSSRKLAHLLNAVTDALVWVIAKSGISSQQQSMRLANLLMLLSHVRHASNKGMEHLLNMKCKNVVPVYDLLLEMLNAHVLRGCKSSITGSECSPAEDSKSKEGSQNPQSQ

c-myc mRNA = experiment: Semi-quantitative RT-PCR of c-myc mRNA in MSCs from OVX mice; type: cell-based, mouse; conditions: 5.0 μM cycloheximide
Method: as §1
(§2) RNA was isolated using TRizol Reagent (Life Technologies, USA), according to the manufacturer's protocol. Semi-quantitative RT-PCR was performed as described previously (Zhou et al. 2001). […]

mouse BMP-2 mRNA [2] = experiment: Real-time RT-PCR of BMP-2 mRNA in bone marrow MSCs from OVX mice; type: cell-based; conditions: 100 nM E2, 24 hr
Method: Two months old Swiss-Webster female mice (ICR) were OVX in accordance with mandated standards of humane care, and the animals were maintained in accordance with the NIH Guide for the Care and Use of Laboratory Animals. After 5 months post-surgery, bone marrow was isolated from femurs and tibias, and the MSCs were cultured as described previously (Gazit et al. 1999 and Zhou et al. 2001). The bone marrow cells were maintained in DMEM (Phenol red free, 1.0 g/L glucose, Biological Industries, Israel) with 15% FBS (Charcoal stripped, heat-inactivated), 100 units/ml penicillin, 100 μg/ml streptomycin, and 2 mM glutamine. […]
as §2
Real-Time PCR was performed using a Roche LightCycler according to the manufacturer's protocol (Roche Molecular Biochemicals, USA). […] Fluoresence was measured at 82° C. for 5 s. To quantify the copy number of the mouse BMP-2 mRNA in MSCs, pGEM-T-mouse BMP-2 plasmids ([…]) were used in standard curve.
All experiments were performed three to five times independently. […] The semi-quantitative RT-PCR and real-time RT-PCR were performed 3 times in independent experiments using total RNA that was isolated from MSCs derived from 3-6 animals each time. […]

SMILES: C[C@]12CC[C@@H]3c4ccc(O)cc4C[C@@H](CCCCCCCCC[S+]([O-])CCCC(F)(F)C(F)(F)F)[C@H]3[C@@H]1CC[C@@H]2O (stereo partly drawn) [ICI-182,780]
BMP-2 mRNA expression, effect of the substance alone (mouse BMP-2 mRNA [1]; 24 hr, listed as ICI): had no effect; also recorded: failed to activate
effect on up-regulation of BMP-2 mRNA expression by E2 (mouse BMP-2 mRNA [1]; ICI 10 μM with E2 100 nM, 24 hr, listed as ICI): blocked; also recorded: inhibited

full-length mouse BMP-2 promoter (−2712) activity via ERβ (human ERβ): not via ERβ
SMILES: O=C(c1ccc(OCCN2CCCCC2)cc1)c1c(-c2ccc(O)cc2)sc2cc(O)ccc12 [raloxifene]
BMP-2 mRNA expression, effect of the substance alone (mouse BMP-2 mRNA [1]; 24 hr): failed to activate

SMILES: CC/C(=C(\c1ccccc1)c1ccc(OCCN(C)C)cc1)c1ccccc1 [tamoxifen]
BMP-2 mRNA expression, effect of the substance alone (mouse BMP-2 mRNA [1]; 24 hr): failed to activate

SMILES: C[C@@H]1C[C@@H]([C@H](O)CC2CC(=O)NC(=O)C2)C(=O)[C@@H](C)C1 [cycloheximide]
effect on up-regulation of BMP-2 mRNA by E2 (mouse BMP-2 mRNA [1]; 5.0 μM cycloheximide added 45 min before 100 nM E2, RNA 4 hr after E2): did not block
c-myc mRNA levels (c-myc mRNA): super-induction; also recorded: superinduction

SMILES: C[C@]12CC[C@@H]3c4ccc(O)cc4CC[C@H]3[C@@H]1CC[C@@H]2O [E2, estradiol]
increase of mouse BMP-2 mRNA levels (mouse BMP-2 mRNA [2]; versus untreated): 2.4 fold
mouse BMP-2 mRNA levels (mouse BMP-2 mRNA [2]; in 2 μg of total RNA, untreated 570±81 copies, p<0.05, ANOVA): 1337±177 copies
